Laboratory results reported in PMC5740381 (Antimicrobial Agents and Chemotherapy, 2017).
Like-named read-outs stand apart in the source and are kept apart here.

How the values were obtained:
HCV genotype 4d replicon = experiment: Transient replicon assay with engineered substitutions; assay type: cell-based, Hepatitis C virus; settings: for EC50: Hepatitis C virus, 96 h
Procedure: (§1) Mutagenesis was performed using a Change-IT multiple-mutation site-directed mutagenesis kit (USB, Cleveland, OH) or by cloning a synthesized DNA fragment encoding the amino acid substitution(s). The genotype 1a and 1b replicon shuttle vectors used for the introduction of the substitutions of interest in the NS3, NS5A, or NS5B gene for transient-transfection assays have been described previously ([28], [33]). The replicon shuttle vectors used for the introduction of substitutions in NS3 genes from other genotypes were similar to the stable replicon cell line constructs described above, except for the absence of the neo gene. After mutagenesis, the plasmids were linearized and RNA was transcribed and then used to transfect Huh-7 cells. Inhibition of HCV replication by the HCV inhibitors was measured by luciferase assay, as described above. Replication efficiency was calculated as a percentage of wild-type replication, as described previously ([28]).

HCV genotype 5a replicon = experiment: as above; assay type: cell-based, Hepatitis C virus
Procedure: as §1

HCV genotype 2a replicon = experiment: as above; assay type: cell-based, Hepatitis C virus
Procedure: as §1

HCV genotype 4a replicon = experiment: as above; assay type: cell-based, Hepatitis C virus; settings: for EC50: Hepatitis C virus
Procedure: as §1

HCV genotype 2b replicon = experiment: as above; assay type: cell-based, Hepatitis C virus; settings: for EC50: Hepatitis C virus
Procedure: as §1

HCV genotype 6a replicon = experiment: as above; assay type: cell-based, Hepatitis C virus; settings: for EC50: Hepatitis C virus
Procedure: as §1

HCV genotype 1a replicon = experiment: as above; assay type: cell-based, Hepatitis C virus
Procedure: as §1

HCV genotype 1b replicon = experiment: as above; assay type: cell-based, Hepatitis C virus
Procedure: as §1

HCV genotype 3a replicon = experiment: as above; assay type: cell-based, Hepatitis C virus; settings: for EC50: Hepatitis C virus
Procedure: as §1

[1] = tested on: HCV subgenomic stable replicon GT2b; experiment: Stable HCV replicon luciferase assay in Huh-7 cells; assay type: cell-based; settings: Hepatitis C virus, 0% human plasma, read-out: Mean EC50 ± SD
Source text: (§2) Five of these nine cell lines have been described previously, including those transfected with genotypes 1a H77, 1b Con1, 3a, 4a, and 6a ([28]). […] The genotype 2b and 6e NS3 sequences were each synthetically constructed based on a consensus sequence derived from the alignment of 15 genotype 2b and 4 genotype 6e sequences, respectively. All replicon constructs were bicistronic subgenomic replicons similar to those described by Bartenschlager and coworkers, and the replicon cell lines were generated by introducing these constructs into cells of an Huh-7 human hepatoma-derived cell line ([50]). The inhibitory effect of the PIs on HCV replication in replicon cells was determined in Dulbecco's modified Eagle medium containing 5% fetal bovine serum with or without 40% human plasma (Bioreclamation, Westbury, NY). The EC50s were determined using nonlinear regression curve fitting as described previously ([33]).

[2] = tested on: HCV subgenomic stable replicon GT3a; experiment: microbe, parasite or virus in culture; assay type: cell-based, Hepatitis C virus; settings: Hepatitis C virus, Huh-7, 0% human plasma, read-out: Mean EC50 ± SD
Source text: as §2

[3] = tested on: HCV subgenomic stable replicon GT4a; experiment: Stable HCV replicon luciferase assay in Huh-7 cells; assay type: cell-based, Hepatitis C virus; settings: Hepatitis C virus, Huh-7, 0% human plasma, read-out: Mean EC50 ± SD
Source text: (§3) . Five of these nine cell lines have been described previously, including those transfected with genotypes 1a H77, 1b Con1, 3a, 4a, and 6a ([28]). The other four cell lines were established by transfecting cells with a nonchimeric genotype 2a JFH-1 replicon (GenBank accession number AB047639), two genotype 2a JFH-1 chimeric replicons containing either a genotype 2b NS3 protease domain (N-terminal 251 amino acids) or a sequence encoding full-length NS3 through the first 39 amino acids of NS5B from genotype 5a (strain SA13), and one chimeric replicon with a genotype 1b Con1 backbone containing full-length NS3 and NS4A sequences from genotype 6e. The genotype 2b and 6e NS3 sequences were each synthetically constructed based on a consensus sequence derived from the alignment of 15 genotype 2b and 4 genotype 6e sequences, respectively. All replicon constructs were bicistronic subgenomic replicons similar to those described by Bartenschlager and coworkers, and the replicon cell lines were generated by introducing these constructs into cells of an Huh-7 human hepatoma-derived cell line ([50]). The inhibitory effect of the PIs on HCV replication in replicon cells was determined in Dulbecco's modified Eagle medium containing 5% fetal bovine serum with or without 40% human plasma (Bioreclamation, Westbury, NY). The EC50s were determined using nonlinear regression curve fitting as described previously ([33]).

[4] = tested on: HCV subgenomic stable replicon GT6a; experiment: as above; assay type: cell-based, Hepatitis C virus; settings: Hepatitis C virus, Huh-7, 0% human plasma, read-out: Mean EC50 ± SD
Source text: as §3

Molecule `Cc1cnc(C(=O)N[C@H]2CCCCC/C=C\[C@@H]3C[C@@]3(C(=O)NS(=O)(=O)C3CC3)NC(=O)[C@@H]3C[C@@H](Oc4nc5ccccc5c5ccccc45)CN3C2=O)cn1` [Paritaprevir] has a Fold change (HCV genotype 4d replicon; 4d NS3 D168V vs wild-type replicon) of 312 fold, an EC50 (HCV genotype 4d replicon; read-out: Mean EC50 ± SD, 4d NS3 D168V) of 4.7 ± 0.91 nM and an EC50 (HCV genotype 4d replicon; read-out: Mean EC50 ± SD, 4d wild type, transient transfection) of 0.015 ± 0.001 nM. It also gave a Fold change (HCV genotype 5a replicon; 5a NS3 D168E vs wild-type replicon) of 23 fold, a Fold change (HCV genotype 5a replicon; 5a NS3 D168H vs wild-type replicon) of 558 fold and a Fold change (HCV genotype 2a replicon; 2a NS3 A156T vs wild-type replicon) of 1.7 fold. The Fold change (HCV genotype 2a replicon; 2a NS3 A156V vs wild-type replicon) was 2.2 fold, the Fold change (HCV genotype 2a replicon; 2a NS3 D168A vs wild-type replicon) was 18 fold and the Fold change (HCV genotype 2a replicon; 2a NS3 D168E vs wild-type replicon) was 5.3 fold. It also gave a Fold change (HCV genotype 2a replicon; 2a NS3 D168V vs wild-type replicon) of 13 fold, a Fold change (HCV genotype 4a replicon; 4a NS3 A156T vs wild-type replicon) of 40 fold and a Fold change (HCV genotype 4a replicon; 4a NS3 A156V vs wild-type replicon) of 155 fold. For the same molecule, the Fold change (HCV genotype 4a replicon; 4a NS3 D168H vs wild-type replicon) was 252 fold, the Fold change (HCV genotype 4a replicon; 4a NS3 D168V vs wild-type replicon) was 323 fold and the Fold change (HCV genotype 4a replicon; 4a NS3 R155C vs wild-type replicon) was 59 fold. The EC50 (HCV genotype 4a replicon; read-out: Mean EC50 ± SD, 4a NS3 A156T) was 1.9 ± 0.25 nM, the EC50 (HCV genotype 4a replicon; read-out: Mean EC50 ± SD, 4a NS3 A156V) was 7.4 ± 1.6 nM and the EC50 (HCV genotype 4a replicon; read-out: Mean EC50 ± SD, 4a NS3 D168H) was 12 ± 3 nM. The EC50 (HCV genotype 4a replicon; read-out: Mean EC50 ± SD, 4a NS3 D168V) was 16 ± 1.9 nM, the EC50 (HCV genotype 4a replicon; read-out: Mean EC50 ± SD, 4a NS3 R155C) was 2.8 ± 0.25 nM and the EC50 (HCV genotype 4a replicon; read-out: Mean EC50 ± SD, 4a wild type, transient transfection) was 0.048 ± 0.01 nM. For the same molecule, the Fold change (HCV genotype 2b replicon; 2b NS3 A156T vs wild-type replicon) was 3.0 fold, the Fold change (HCV genotype 2b replicon; 2b NS3 A156V vs wild-type replicon) was 5.0 fold and the Fold change (HCV genotype 2b replicon; 2b NS3 D168A vs wild-type replicon) was 11 fold. It also gave a Fold change (HCV genotype 2b replicon; 2b NS3 D168E vs wild-type replicon) of 2.2 fold, a Fold change (HCV genotype 2b replicon; 2b NS3 D168V vs wild-type replicon) of 9.4 fold and an EC50 (HCV genotype 2b replicon; read-out: Mean EC50 ± SD, 2b NS3 A156T) of 338 ± 86 nM. The EC50 (HCV genotype 2b replicon; read-out: Mean EC50 ± SD, 2b NS3 A156V) was 573 ± 204 nM, the EC50 (HCV genotype 2b replicon; read-out: Mean EC50 ± SD, 2b NS3 D168A) was 1310 nM and the EC50 (HCV genotype 2b replicon; read-out: Mean EC50 ± SD, 2b NS3 D168E) was 256 ± 58 nM. The EC50 (HCV genotype 2b replicon; read-out: Mean EC50 ± SD, 2b NS3 D168V) was 1070 nM, the EC50 (HCV genotype 2b replicon; read-out: Mean EC50 ± SD, 2b wild type, transient transfection) was 114 ± 24 nM and the Fold change (HCV genotype 6a replicon; 6a NS3 D168A vs wild-type replicon) was 1,347 fold. The Fold change (HCV genotype 6a replicon; 6a NS3 D168H vs wild-type replicon) was 2,490 fold, the Fold change (HCV genotype 6a replicon; 6a NS3 D168V vs wild-type replicon) was 3,336 fold and the EC50 (HCV genotype 6a replicon; read-out: Mean EC50 ± SD, 6a NS3 D168A) was 162 ± 80 nM. The EC50 (HCV genotype 6a replicon; read-out: Mean EC50 ± SD, 6a NS3 D168H) was 299 ± 87 nM, the EC50 (HCV genotype 6a replicon; read-out: Mean EC50 ± SD, 6a NS3 D168V) was 400 ± 139 nM and the EC50 (HCV genotype 6a replicon; read-out: Mean EC50 ± SD, 6a wild type, transient transfection) was 0.12 ± 0.04 nM. The Fold change (HCV genotype 1a replicon; 1a NS3 A156T vs wild-type replicon) was 17 fold, the Fold change (HCV genotype 1a replicon; 1a NS3 D168A vs wild-type replicon) was 50 fold and the Fold change (HCV genotype 1a replicon; 1a NS3 D168E vs wild-type replicon) was 14 fold. The Fold change (HCV genotype 1a replicon; 1a NS3 D168V vs wild-type replicon) was 96 fold, the Fold change (HCV genotype 1a replicon; 1a NS3 F43L vs wild-type replicon) was 20 fold and the Fold change (HCV genotype 1a replicon; 1a NS3 Q80K vs wild-type replicon) was 2.8 fold. For the same molecule, the Fold change (HCV genotype 1a replicon; 1a NS3 R155K vs wild-type replicon) was 37 fold, the Fold change (HCV genotype 1a replicon; 1a NS3 T54S vs wild-type replicon) was 0.4 fold and the Fold change (HCV genotype 1a replicon; 1a NS3 V36M vs wild-type replicon) was 2.1 fold. The Fold change (HCV genotype 1a replicon; 1a NS3 V55I vs wild-type replicon) was 1.0 fold, the Fold change (HCV genotype 1a replicon; 1a NS3 Y56H vs wild-type replicon) was 2.9 fold and the Fold change (HCV genotype 1b replicon; 1b NS3 A156T vs wild-type replicon) was 7.4 fold. For the same molecule, the Fold change (HCV genotype 1b replicon; 1b NS3 A156V vs wild-type replicon) was 21 fold, the Fold change (HCV genotype 1b replicon; 1b NS3 D168A vs wild-type replicon) was 27 fold and the Fold change (HCV genotype 1b replicon; 1b NS3 D168E vs wild-type replicon) was 4.4 fold. It also gave a Fold change (HCV genotype 1b replicon; 1b NS3 D168V vs wild-type replicon) of 159 fold, a Fold change (HCV genotype 1b replicon; 1b NS3 R155K vs wild-type replicon) of 40 fold and a Fold change (HCV genotype 1b replicon; 1b NS3 T54A vs wild-type replicon) of 0.8 fold. The Fold change (HCV genotype 1b replicon; 1b NS3 V55A vs wild-type replicon) was 0.6 fold, the Fold change (HCV genotype 1b replicon; 1b NS3 V170A vs wild-type replicon) was 0.8 fold and the Fold change (HCV genotype 3a replicon; 3a NS3 A156G vs wild-type replicon) was 57 fold. The Fold change (HCV genotype 3a replicon; 3a NS3 Q168R vs wild-type replicon) was 29 fold, the Fold change (HCV genotype 3a replicon; 3a NS3 R155K vs wild-type replicon) was 5.2 fold and the EC50 (HCV genotype 3a replicon; read-out: Mean EC50 ± SD, 3a NS3 A156G) was 1770 nM. The EC50 (HCV genotype 3a replicon; read-out: Mean EC50 ± SD, 3a NS3 Q168R) was 912 ± 221 nM, the EC50 (HCV genotype 3a replicon; read-out: Mean EC50 ± SD, 3a NS3 R155K) was 161 ± 20 nM and the EC50 (HCV genotype 3a replicon; read-out: Mean EC50 ± SD, 3a wild type, transient transfection) was 31 ± 7 nM. The EC50 [1] was 107 ± 17 nM, the EC50 [2] was 19 ± 5.2 nM and the EC50 [3] was 0.09 ± 0.03 nM. For the same molecule, the EC50 [4] was 0.69 ± 0.09 nM.
